From the supplement of paper PMC6045584
± gives the standard deviation of the averaged measurements.

Legend:
[1] = compound: CC1(C)CC(=O)c2c(C(F)(F)F)nn(-c3ccc(C(N)=O)c(N[C@H]4CC[C@H](OC(=O)CN)CC4)c3)c2C1 [SNX-5422]; test: surviving fraction relative to DMSO-only wells; higher = less growth inhibition; settings: exposure time: 5 days
Procedure, shortened: (§1)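 Luminescence normalised to the median of DMSO-only wells defines surviving fraction, with viability read by CellTiter-Glo. Signal was recorded after 10 minutes at room temperature, once log-phase tumour cell lines seeded at 250–500 cells per well in 384-well plates had spent 24 hours settling and then five days under continuous exposure to inhibitors at 0.5, 1, 5, 10, 50, 100, 500 and 1000 nM.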

[2] = compound: C=CC(=O)Nc1cc2c(Nc3ccc(F)c(Cl)c3)ncnc2cc1OCCCN1CCOCC1 [CANERTINIB]; test: as above; settings: exposure time: 5 days
Procedure, shortened: as §1

Test System | surviving fraction ([1]; 0.5 nM) | surviving fraction ([1]; 1 nM) | surviving fraction ([1]; 5 nM) | surviving fraction ([1]; 10 nM) | surviving fraction ([1]; 50 nM) | surviving fraction ([1]; 100 nM) | surviving fraction ([1]; 500 nM) | surviving fraction ([1]; 1000 nM) | surviving fraction ([2]; 0.5 nM) | surviving fraction ([2]; 1 nM) | surviving fraction ([2]; 5 nM) | surviving fraction ([2]; 10 nM) | surviving fraction ([2]; 50 nM) | surviving fraction ([2]; 100 nM) | surviving fraction ([2]; 500 nM) | surviving fraction ([2]; 1000 nM)
MDAMB231 BREAST | 0.971 ± 0.021 | 0.998 ± 0.034 | 1.01 ± 0.035 | 1.02 ± 0.018 | 0.65 ± 0.032 | 0.455 ± 0.03 | 0.0989 ± 0.0031 | 0.0988 ± 0.0026 | 0.93 ± 0.033 | 0.937 ± 0.027 | 0.956 ± 0.022 | 0.946 ± 0.031 | 0.986 ± 0.021 | 0.989 ± 0.029 | 0.874 ± 0.02 | 0.746 ± 0.039
ASKA SYNOVIAL | 0.957 ± 0.041 | 0.967 ± 0.015 | 0.963 ± 0.035 | 0.883 ± 0.062 | 0.461 ± 0.05 | 0.233 ± 0.01 | 0.231 ± 0.0067 | 0.293 ± 0.0035 | 0.958 ± 0.03 | 0.93 ± 0.014 | 1.04 ± 0.024 | 0.917 ± 0.062 | 1.16 ± 0.077 | 1.09 ± 0.059 | 0.933 ± 0.1 | 0.721 ± 0.047
SG43 HEADNECK | 0.971 ± 0.16 | 1.26 ± 0.33 | 0.911 ± 0.033 | 0.865 ± 0.13 | 0.205 ± 0.085 | 0.033 ± 0.004 | 0.0307 ± 0.019 | 0.037 ± 0.003 | 1.05 ± 0.074 | 1.06 ± 0.1 | 0.772 ± 0.21 | 0.816 ± 0.14 | 0.387 ± 0.23 | 0.223 ± 0.027 | 0.265 ± 0.05 | 0.183 ± 0.0075
SAOS2 BONE | 1.15 ± 0.034 | 1.14 ± 0.075 | 1.16 ± 0.029 | 1.15 ± 0.027 | 0.123 ± 0.015 | 0.0737 ± 0.0011 | 0.076 | 0.0853 ± 0.0029 | 0.853 ± 0.028 | 0.85 ± 0.042 | 0.877 ± 0.06 | 0.818 ± 0.015 | 1.02 ± 0.038 | 1.04 ± 0.12 | 0.815 ± 0.026 | 0.703 ± 0.063
SJSA1 BONE | 1.06 ± 0.041 | 1.02 ± 0.051 | 1.12 ± 0.088 | 1.14 ± 0.034 | 0.484 ± 0.03 | 0.177 ± 0.0095 | 0.0583 ± 0.0035 | 0.0523 ± 0.0015 | 1.23 ± 0.12 | 1.2 ± 0.07 | 1.08 ± 0.15 | 1.31 ± 0.055 | 0.0523 ± 0.0021 | 1.64 ± 0.052 | 1.66 ± 0.053 | 1.74 ± 0.12
CASKI CERVIX | 0.913 ± 0.016 | 0.937 ± 0.021 | 0.932 ± 0.049 | 0.829 ± 0.074 | 0.119 ± 0.02 | 0.0603 ± 0.0035 | 0.031 ± 0.0036 | 0.033 | 0.83 ± 0.027 | 0.8 ± 0.042 | 0.644 ± 0.052 | 0.704 ± 0.042 | 0.555 ± 0.037 | 0.516 ± 0.054 | 0.157 ± 0.018 | 0.151 ± 0.022
T47D BREAST | 1.08 ± 0.018 | 1.06 ± 0.018 | 1.08 ± 0.035 | 1.06 ± 0.019 | 0.492 ± 0.033 | 0.512 ± 0.016 | 0.31 ± 0.0074 | 0.288 ± 0.0079 | 0.926 ± 0.051 | 0.898 ± 0.024 | 0.922 ± 0.058 | 0.899 ± 0.037 | 0.973 ± 0.021 | 0.96 ± 0.012 | 0.893 ± 0.015 | 0.874 ± 0.031
CME SYNOVIAL | 1.05 ± 0.06 | 1.21 ± 0.062 | 1.23 ± 0.074 | 1.35 ± 0.077 | 1.01 ± 0.18 | 0.276 ± 0.0067 | 0.287 ± 0.011 | 0.365 ± 0.034 | 0.93 ± 0.083 | 0.969 ± 0.098 | 0.918 ± 0.065 | 0.888 ± 0.087 | 1.18 ± 0.034 | 1.2 ± 0.11 | 1.05 ± 0.033 | 0.876 ± 0.11
HMT3552 BREAST | 1.04 | 1.05 | 1.12 | 1.08 | 0.171 | 0.106 | 0.082 | 0.079 | 0.832 ± 0.042 | 0.838 ± 0.058 | 0.804 ± 0.014 | 0.774 ± 0.029 | 0.828 ± 0.079 | 0.8597 ± 0.0078 | 0.696 ± 0.037 | 0.604 ± 0.015
HCC1954 BREAST | 0.8303 ± 0.0039 | 0.93 ± 0.028 | 0.873 ± 0.042 | 0.762 ± 0.06 | 0.151 ± 0.0095 | 0.109 ± 0.0067 | 0.0587 ± 0.0011 | 0.062 ± 0.0021 | 0.376 ± 0.025 | 0.336 ± 0.0092 | 0.382 ± 0.014 | 0.316 ± 0.014 | 0.263 ± 0.011 | 0.258 ± 0.015 | 0.136 ± 0.016 | 0.117 ± 0.0071
CADOES1 SOFT TISSUE | 0.975 ± 0.13 | 0.967 ± 0.089 | 1.07 ± 0.04 | 0.943 ± 0.11 | 0.365 ± 0.064 | 0.122 ± 0.02 | 0.061 ± 0.0056 | 0.0547 ± 0.00058 | 1 ± 0.13 | 0.945 ± 0.049 | 0.945 ± 0.038 | 0.93 ± 0.075 | 0.918 ± 0.17 | 0.926 ± 0.029 | 0.738 ± 0.12 | 0.595 ± 0.035
HCC70 BREAST | 1.07 ± 0.05 | 1.142 ± 0.0055 | 1.19 ± 0.043 | 1.17 ± 0.048 | 0.668 ± 0.11 | 0.133 ± 0.023 | 0.127 ± 0.021 | 0.113 ± 0.016 | 0.991 ± 0.14 | 1.088 ± 0.0046 | 1.02 ± 0.078 | 0.96 ± 0.019 | 0.911 ± 0.047 | 0.893 ± 0.017 | 0.707 ± 0.0092 | 0.666 ± 0.068
SIHA CERVIX | 1.11 ± 0.1 | 1.1 ± 0.096 | 1.21 ± 0.055 | 1.23 ± 0.095 | 0.423 ± 0.034 | 0.262 ± 0.002 | 0.2 ± 0.0087 | 0.188 ± 0.0084 | 0.897 ± 0.035 | 0.809 ± 0.04 | 0.978 ± 0.023 | 0.867 ± 0.049 | 0.951 ± 0.14 | 0.977 ± 0.055 | 0.871 ± 0.027 | 0.727 ± 0.027
HCC78 LUNG | 0.808 ± 0.27 | 1.2 ± 0.38 | 1.03 ± 0.17 | 1 ± 0.079 | 0.0547 ± 0.01 | 0.113 ± 0.049 | 0.0627 ± 0.016 | 0.088 ± 0.007 | 0.848 ± 0.35 | 0.812 ± 0.13 | 0.946 ± 0.086 | 0.983 ± 0.23 | 0.638 ± 0.043 | 0.775 ± 0.084 | 0.532 ± 0.081 | 0.426 ± 0.18
NOS1 BONE | 1.1 ± 0.11 | 1.08 ± 0.052 | 1.16 ± 0.067 | 0.947 ± 0.056 | 0.451 ± 0.037 | 0.276 ± 0.012 | 0.113 ± 0.0076 | 0.117 ± 0.014 | 0.909 ± 0.16 | 0.939 ± 0.12 | 0.957 ± 0.094 | 1.04 ± 0.14 | 1.04 ± 0.11 | 1.1 ± 0.1 | 0.585 ± 0.052 | 0.333 ± 0.02
OS25HAL BONE | 0.9827 ± 0.0029 | 1.004 ± 0.0087 | 1.03 ± 0.019 | 0.998 ± 0.036 | 0.789 ± 0.12 | 0.257 ± 0.031 | 0.13 ± 0.018 | 0.132 ± 0.023 | 0.898 ± 0.0053 | 0.879 ± 0.013 | 0.886 ± 0.003 | 0.893 ± 0.042 | 1.014 ± 0.0056 | 1.03 ± 0.019 | 1.01 ± 0.072 | 0.981 ± 0.092
NY BONE | 0.9907 ± 0.0074 | 1.01 ± 0.04 | 1.05 ± 0.045 | 1.03 ± 0.047 | 0.086 ± 0.0061 | 0.128 ± 0.012 | 0.0563 ± 0.0047 | 0.054 ± 0.0078 | 0.892 ± 0.042 | 0.905 ± 0.031 | 0.998 ± 0.027 | 0.956 ± 0.028 | 0.965 ± 0.052 | 0.955 ± 0.01 | 0.825 ± 0.034 | 0.69 ± 0.009
